Assays:
[1] = target: GCN2 kinase (Homo sapiens, UniProt Q9P2K8); experiment: GCN2 enzyme inhibition assay (Transcreener ADP2 fluorescence polarization); type: biochemical; conditions: compounds of Formula II; 280 μM ATP, 4 nM GCN2 kinase
Summary of the method: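 4 nM GCN2 + 200 μM (RS)7 + compound (0–8 μM), 10 min preinc.; start with ATP (280 μM final); 1 h, 25 °C; pH 7.5 Tris/NaCl/MgCl2/DTT; ADP FP readout; IC50, Ki(app) via tight-binding fit.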

[2] = target: intracellular GCN2 (phosphorylation of the GCN2 substrate eIF2α) (Homo sapiens, UniProt Q9P2K8); experiment: GCN2 cellular inhibition assay (AlphaScreen SureFire P-eIF2α Ser51, borrelidin-treated U2OS cells); type: cell-based; conditions: compounds of Formula II; biomarker assay, phosphorylated eIF2α Ser51 in borrelidin-treated U2OS cells
intracellular GCN2 (phosphorylation of the GCN2 substrate eIF2α), sequence (Q9P2K8 whole entry): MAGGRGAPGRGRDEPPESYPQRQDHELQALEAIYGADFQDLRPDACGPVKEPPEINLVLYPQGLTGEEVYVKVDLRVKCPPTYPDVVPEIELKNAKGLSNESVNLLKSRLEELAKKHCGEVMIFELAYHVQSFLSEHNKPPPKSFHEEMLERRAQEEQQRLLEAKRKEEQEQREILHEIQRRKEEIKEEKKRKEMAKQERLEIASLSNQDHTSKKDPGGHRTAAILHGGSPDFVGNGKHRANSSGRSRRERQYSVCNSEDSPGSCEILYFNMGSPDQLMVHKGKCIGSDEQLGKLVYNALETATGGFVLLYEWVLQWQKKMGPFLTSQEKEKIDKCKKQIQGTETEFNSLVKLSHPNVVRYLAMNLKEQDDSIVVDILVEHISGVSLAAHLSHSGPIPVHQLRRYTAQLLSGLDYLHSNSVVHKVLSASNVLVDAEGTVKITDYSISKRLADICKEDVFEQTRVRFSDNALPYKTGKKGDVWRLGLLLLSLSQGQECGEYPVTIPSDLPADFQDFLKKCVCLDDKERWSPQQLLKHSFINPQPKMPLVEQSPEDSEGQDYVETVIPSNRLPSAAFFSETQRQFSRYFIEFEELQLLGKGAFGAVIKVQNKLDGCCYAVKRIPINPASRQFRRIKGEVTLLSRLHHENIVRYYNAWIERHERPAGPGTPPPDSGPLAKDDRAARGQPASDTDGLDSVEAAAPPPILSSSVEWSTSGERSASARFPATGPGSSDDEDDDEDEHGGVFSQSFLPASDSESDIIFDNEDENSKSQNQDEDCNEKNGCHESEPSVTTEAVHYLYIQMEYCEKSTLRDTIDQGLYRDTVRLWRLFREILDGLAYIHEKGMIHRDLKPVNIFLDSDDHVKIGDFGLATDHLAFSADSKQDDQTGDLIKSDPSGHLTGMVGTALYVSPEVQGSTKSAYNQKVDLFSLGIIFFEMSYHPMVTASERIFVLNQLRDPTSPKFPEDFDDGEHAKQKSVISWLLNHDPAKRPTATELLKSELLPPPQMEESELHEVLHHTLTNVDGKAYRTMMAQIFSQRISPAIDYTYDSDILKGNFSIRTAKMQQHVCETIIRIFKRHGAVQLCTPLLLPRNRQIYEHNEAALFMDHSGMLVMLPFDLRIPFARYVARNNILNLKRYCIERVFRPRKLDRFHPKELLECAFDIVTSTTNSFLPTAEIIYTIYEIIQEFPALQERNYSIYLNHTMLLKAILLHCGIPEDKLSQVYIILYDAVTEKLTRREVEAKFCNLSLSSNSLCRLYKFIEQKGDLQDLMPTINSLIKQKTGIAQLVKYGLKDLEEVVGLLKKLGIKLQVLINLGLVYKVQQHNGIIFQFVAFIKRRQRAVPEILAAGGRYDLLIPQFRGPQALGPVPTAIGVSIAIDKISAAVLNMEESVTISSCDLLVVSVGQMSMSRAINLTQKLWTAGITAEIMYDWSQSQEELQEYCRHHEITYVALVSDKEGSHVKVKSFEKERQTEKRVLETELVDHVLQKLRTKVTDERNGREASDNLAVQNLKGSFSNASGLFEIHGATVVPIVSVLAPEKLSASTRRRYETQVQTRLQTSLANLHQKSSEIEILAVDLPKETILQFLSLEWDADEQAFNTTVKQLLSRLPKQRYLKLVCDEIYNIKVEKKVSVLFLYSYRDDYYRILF
Summary of the method: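 Phospho-eIF2α (Ser51) in lysates was quantified by AlphaScreen SureFire after a 1 h, 37 °C treatment of U2OS cells with 10 μM borrelidin and compound at 4-fold dilutions starting from 40 μM final. Inhibition expressed in percent against wells stimulated by borrelidin alone.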

GCN2 kinase, sequence (Q9P2K8 whole entry): as above

Structure (SMILES) | Ki [1] | IC50 [2]
CS(=O)(=O)NCC1CC(N2CC(F)C2)CN(c2cc(-c3cnc4ccc(C(F)F)nn34)ncn2)C1 (centres unmarked) [II-428, N-((1-(6-(6-(Difluoromethyl)imidazo[1,2-b]pyridazin-3-yl)pyrimidin-4-yl)-5-(3-fluoroazetidin-1-yl)piperidin-3-yl)methyl)methanesulfonamide] | 0.01 to 1 µM | > 5 µM
CS(=O)(=O)NCC1CC(N2CC(F)C2)CN(c2cc(-c3cnc4ccc(C(F)F)nn34)ncn2)C1 (centres unmarked) [II-429, N-((1-(6-(6-(Difluoromethyl)imidazo[1,2-b]pyridazin-3-yl)pyrimidin-4-yl)-5-(3-fluoroazetidin-1-yl)piperidin-3-yl)methyl)methanesulfonamide] | 0.01 to 1 µM | > 5 µM
CS(=O)(=O)CC1CCCN(c2cc(-c3cnc4ccc(C(F)F)nn34)ncn2)C1 (centres unmarked) [II-430, 6-(Difluoromethyl)-3-(6-(3-((methylsulfonyl)methyl)piperidin-1-yl)pyrimidin-4-yl)imidazo[1,2-b]pyridazine] | 0.01 to 1 µM | 0.5 to 5 µM
CC1C(CNS(C)(=O)=O)C(F)(F)CCN1c1cc(-c2cnc3ccc(C(F)F)nn23)ncn1 (centres unmarked) [II-431, N-((1-(6-(6-(Difluoromethyl)imidazo[1,2-b]pyridazin-3-yl)pyrimidin-4-yl)-4,4-difluoro-2-methylpiperidin-3-yl)methyl)methanesulfonamide] | < 0.01 µM | < 0.5 µM
CC1C(CNS(C)(=O)=O)C(F)(F)CCN1c1cc(-c2cnc3ccc(C(F)F)nn23)ncn1 (centres unmarked) [II-432, N-((1-(6-(6-(Difluoromethyl)imidazo[1,2-b]pyridazin-3-yl)pyrimidin-4-yl)-4,4-difluoro-2-methylpiperidin-3-yl)methyl)methanesulfonamide] | < 0.01 µM | < 0.5 µM
CC1CC(F)(F)C(CNS(C)(=O)=O)CN1c1cc(-c2cnc3ccc(C(F)F)nn23)ncn1 (centres unmarked) [II-433, N-((1-(6-(6-(Difluoromethyl)imidazo[1,2-b]pyridazin-3-yl)pyrimidin-4-yl)-4,4-difluoro-6-methylpiperidin-3-yl)methyl)methanesulfonamide] | < 0.01 µM | < 0.5 µM
CC1CC(F)(F)C(CNS(C)(=O)=O)CN1c1cc(-c2cnc3ccc(C(F)F)nn23)ncn1 (centres unmarked) [II-434, N-((1-(6-(6-(Difluoromethyl)imidazo[1,2-b]pyridazin-3-yl)pyrimidin-4-yl)-4,4-difluoro-6-methylpiperidin-3-yl)methyl)methanesulfonamide] | 0.01 to 1 µM | > 5 µM
O=S(=O)(N[C@H]1CCCN(c2cc(-c3cnc4ccc(C(F)F)nn34)ncn2)C1)C1CNC1 [II-435, (S)—N-(1-(6-(6-(Difluoromethyl)imidazo[1,2-b]pyridazin-3-yl)pyrimidin-4-yl)piperidin-3-yl)azetidine-3-sulfonamide] | 0.01 to 1 µM | > 5 µM
OCC12CC1CN(c1cc(-c3cnc4ccc(C(F)F)nn34)ncn1)C2 (centres unmarked) [II-438, (3-(6-(6-(Difluoromethyl)imidazo[1,2-b]pyridazin-3-yl)pyrimidin-4-yl)-3-azabicyclo[3.1.0]hexan-1-yl)methanol] | 0.01 to 1 µM | 0.5 to 5 µM
CS(=O)(=O)NC1(C2CCN(c3cc(-c4cnc5ccc(C(F)F)nn45)ncn3)C2)CC1 (centres unmarked) [II-439, N-(1-(1-(6-(6-(Difluoromethyl)imidazo[1,2-b]pyridazin-3-yl)pyrimidin-4-yl)pyrrolidin-3-yl)cyclopropyl)methanesulfonamide] | 0.01 to 1 µM | 0.5 to 5 µM
CS(=O)(=O)NCC1CN(c2cc(-c3cnc4ccc(C(F)F)nn34)ncn2)CC(C2CC2)O1 (centres unmarked) [II-440, N-((6-Cyclopropyl-4-(6-(6-(difluoromethyl)imidazo[1,2-b]pyridazin-3-yl)pyrimidin-4-yl)morpholin-2-yl)methyl)methanesulfonamide] | 0.01 to 1 µM | 0.5 to 5 µM
CS(=O)(=O)NCC1CN(c2cc(-c3cnc4ccc(C(F)F)nn34)ncn2)CC(C2CC2)O1 (centres unmarked) [II-441, N-((6-Cyclopropyl-4-(6-(6-(difluoromethyl)imidazo[1,2-b]pyridazin-3-yl)pyrimidin-4-yl)morpholin-2-yl)methyl)methanesulfonamide] | 0.01 to 1 µM | 0.5 to 5 µM
O=S(=O)(N[C@H]1CCCN(c2cc(-c3cnc4ccc(C(F)F)nn34)ncn2)C1)C1CC1 [II-442, (S)—N-(1-(6-(6-(Difluoromethyl)imidazo[1,2-b]pyridazin-3-yl)pyrimidin-4-yl)piperidin-3-yl)cyclopropanesulfonamide] | 0.01 to 1 µM | > 5 µM
CS(=O)(=O)NCC1CN(c2cc(-c3cnc4ccc(C(F)F)nn34)ncn2)CC(C2CC2)O1 (centres unmarked) [II-443, N-((6-Cyclopropyl-4-(6-(6-(difluoromethyl)imidazo[1,2-b]pyridazin-3-yl)pyrimidin-4-yl)morpholin-2-yl)methyl)methanesulfonamide] | < 0.01 µM | < 0.5 µM
CS(=O)(=O)NCC1CN(c2cc(-c3cnc4ccc(C(F)F)nn34)ncn2)CC(C2CC2)O1 (centres unmarked) [II-444, N-((6-Cyclopropyl-4-(6-(6-(difluoromethyl)imidazo[1,2-b]pyridazin-3-yl)pyrimidin-4-yl)morpholin-2-yl)methyl)methanesulfonamide] | < 0.01 µM | < 0.5 µM
CC1(NS(C)(=O)=O)CCCN(c2cc(-c3cnc4ccc(C(F)F)nn34)ncn2)C1 (centres unmarked) [II-445, N-(1-(6-(6-(Difluoromethyl)imidazo[1,2-b]pyridazin-3-yl)pyrimidin-4-yl)-3-methylpiperidin-3-yl)methanesulfonamide] | 0.01 to 1 µM | > 5 µM
CC1(NS(C)(=O)=O)CCCN(c2cc(-c3cnc4ccc(C(F)F)nn34)ncn2)C1 (centres unmarked) [II-446, N-(1-(6-(6-(Difluoromethyl)imidazo[1,2-b]pyridazin-3-yl)pyrimidin-4-yl)-3-methylpiperidin-3-yl)methanesulfonamide] | 0.01 to 1 µM | > 5 µM
CS(=O)(=O)NCC12CC1CN(c1cc(-c3cnc4ccc(C(F)F)nn34)ncn1)C2 (centres unmarked) [II-447, N-((3-(6-(6-(Difluoromethyl)imidazo[1,2-b]pyridazin-3-yl)pyrimidin-4-yl)-3-azabicyclo[3.1.0]hexan-1-yl)methyl)methanesulfonamide] | 0.01 to 1 µM | 0.5 to 5 µM
CC1C(CNS(C)(=O)=O)N(C)C(C)CN1c1cc(-c2cnc3ccc(C(F)F)nn23)ncn1 (centres unmarked) [II-448, N-((4-(6-(6-(Difluoromethyl)imidazo[1,2-b]pyridazin-3-yl)pyrimidin-4-yl)-1,3,6-trimethylpiperazin-2-yl)methyl)methanesulfonamide] | < 0.01 µM | < 0.5 µM
C[C@@H]1C[C@H](NS(C)(=O)=O)CN(c2cc(-c3cnc4ccc(C(F)F)nn34)ncn2)C1 [II-449, N-((3S,5R)-1-(6-(6-(Difluoromethyl)imidazo[1,2-b]pyridazin-3-yl)pyrimidin-4-yl)-5-methylpiperidin-3-yl)methanesulfonamide] | < 0.01 µM | < 0.5 µM
CS(=O)(=O)NCC1CN(c2cc(-c3cnc4ccc(C(F)F)nn34)ncn2)CCN1 (centres unmarked) [II-450, N-((4-(6-(6-(Difluoromethyl)imidazo[1,2-b]pyridazin-3-yl)pyrimidin-4-yl)piperazin-2-yl)methyl)methanesulfonamide] | 0.01 to 1 µM | 0.5 to 5 µM
FC(F)c1ccc2ncc(-c3cc(N4CC5CC(C4)O5)ncn3)n2n1 [II-451, 3-(6-(6-(Difluoromethyl)imidazo[1,2-b]pyridazin-3-yl)pyrimidin-4-yl)-6-oxa-3-azabicyclo[3.1.1]heptane] | 0.01 to 1 µM | 0.5 to 5 µM

From patent US10988477B2 (Merck Patent GmbH, priority 2018, dated 2021)
